Results on three molecules are retold here after ChEMBL document CHEMBL1157435, “Synthesis of 3',4'-epoxynoraristeromycin analogs for molecular labeling probe of S-adenosyl-l-homocysteine hydrolase” (Bioorg Med Chem, 2008).

One experiment concerns the target Adenosylhomocysteinase (Homo sapiens, UniProt P23526). Description: Inhibition of human SAHH.
The nature of experiment [1]: (§1) Inhibition of Plasmodium falciparum SAHH.
The next experiment concerns Plasmodium falciparum. Described as §1.

Activity calls are given as the source filed them. The calls are words filed in the database; no cut-off is given here.

For orientation: Ki means the dissociation constant of the complex between target and ligand, obtained from inhibition or displacement. `Nc1nc(F)nc2c1ncn2[C@@H]1C[C@H]2O[C@H]2[C@H]1O`: the Ki was determined as 20.3 µM at Adenosylhomocysteinase and 14.3 µM in experiment [1]. In addition, the Kinact on Adenosylhomocysteinase is 0.133 min⁻¹; in the experiment with Plasmodium falciparum it was 0.099 min⁻¹.

Consider `Nc1ncnc2c1ncn2C[C@H](O)[C@H](O)C=O`, for which the Kinact at Adenosylhomocysteinase was determined as 0.09 min⁻¹.

For `Nc1ncnc2c1ncn2[C@@H]1C[C@H]2O[C@H]2[C@H]1O`, on Adenosylhomocysteinase, the Ki amounted to 12.4 µM and the Kinact stood at 0.552 min⁻¹. The result in the experiment with Plasmodium falciparum was inactive.
